From US12552797B2, “Process for making (3-[cyclopropylethoxy(difluoro)methyl]-6-6[5-fluoro-6-(2,2,2-trifluoroethoxy-3-pyridyl]- [1,2,4]triazolo[4,3-a]pyrazine” (Praxis Precision Medicines, Inc., priority 2019, dated 2026)
Values after ≈ are worked out from the molar mass of the structure shown.

Experiments:
[1] = Stability of suspension formulations in methylcellulose/Poloxamer 188 vehicles (appearance, concentration, purity, PSD); type: physicochemical; set-up: key: *: homogeneous suspension initially, sedimentation occurred over time and returned to homogeneous after gentle agitation; #: viscous homogeneous suspension initially, sedimentation occurred over time and returned to homogeneous after gentle agitation
Protocol: As shown in Tables 9-11, various suspension formulations were tested for stability under different conditions.
To prepare a suspension weigh required amount of milled Compound 1 into a glass container and add corresponding volume of the vehicle. Thoroughly disperse the compound into a homogenous suspension using an overhead mixer at the final concentration target. Concentrations were prepared at 0.1 mg/mL and at 10 mg/mL. The suspension products were physically evaluated on visual appearance, concentration, purity and PSD.
The vehicles are prepared by dissolving 0.5% by weight of either 400 cP methylcellulose or 4000 cP methylcellulose and 0.2% Poloxamer 188. For the preserved suspensions, additionally 1.0% by volume of paraben preservative solution was dissolved into vehicle using an overhead mixer. The paraben preservative solution was prepared by dissolving 0.10 g methyl paraben, 0.025 g propylparaben in 9.875 g propylene glycol dissolved by mixing with a stir bar at room temperature for 1 hour.

[2] = Kinetic solubility of amorphous solid dispersions (ASD) in FaSSIF; type: physicochemical
Protocol: Amorphous solid dispersion including Compound 1 was prepared with a mixture of Compound 1 and polymer. Nine ASD formulations were prepared using for screening 9 different polymers as the solid dispersant (PVPK30, PVPVA64, Soluplus, HPMC E5, HPMC ASMG, HPMC ASMF, HPMC ASHG, Eudragit EPO, Eudragit L100). About 10 mg of Compound 1 and 40 mg of corresponding polymer were weighed into 40-mL glass vials, and dissolved in 1 mL of MeOH/DCM (1:1, v/v) to prepare stock solution. […] The product after evaporation was dried under vacuum at 30° C. overnight and further characterized by appearance, PLM, XRPD and mDSC.
The nine ASD formulations were tested for kinetic solubility in FaSSIF at the concentration of 2 mg/mL. The experiment was run at 37° C. with the rate of 450 rpm. 0.5 mL of the mixture was taken out at each time point and centrifuged before running UPLC (a shortened runtime version of the described HPLC method was used to determine the Compound 1 levels).

[3] = Phase 1 single/multiple ascending dose and food effect trial in healthy volunteers: pharmacokinetics (plasma, urine); type: in vivo, human
Description: This is a three-part clinical trial to evaluate the safety, tolerability, PK, and food effect of Compound 1 in healthy volunteers aged 18 to 55 years inclusive. The clinical trial is comprised of the following 3 parts: • Part A is randomized, double-blinded and placebo-controlled. Part A is designed to investigate the safety and PK of single ascending doses of Compound 1. • Part B is randomized, double-blinded and placebo-controlled. Part B is designed to investigate the safety and PK of multiple ascending doses of Compound 1 (selected based on the results from Part A). • Part C is a randomized, open-label, crossover design to investigate the PK of a single dose of Compound 1 in the fasted and fed state. Objectives and Endpoints: Part A
Part C may commence once the safety and PK have been adequately evaluated in the last cohort of Part A. Up to 16 participants receive two doses of Compound 1, one dose after a minimum of 10 hours fasting and one after consumption of a high-fat, high calorie meal in a randomized crossover design, with a 7 day washout in between periods. Up to 3 additional days of washout may be added between fasted and fed dosing based on the observed half-life in Part A.
A validated bioanalytical method is utilized for the determination of plasma and urine concentrations of Compound 1. Plasma and urine concentrations are summarized by dose group/condition and timepoint using descriptive statistics. In addition to descriptive statistics specified in General Conditions above, plasma concentrations are also summarized using number and percentage of concentrations below the level of quantification (BLQ) and coefficient of variation (CV %).
Pharmacokinetic parameters are estimated from concentration-time data using standard non-compartmental methods. Urine PK parameters are estimated from urine concentration and urine volume data. PK parameters are summarized by dose group/condition using descriptive statistics. In addition to descriptive statistics specified in General Conditions above, PK parameters are summarized using CV %, geometric mean, and geometric coefficient of variation. PK parameters are assessed for linearity and dose proportionality using the power model where feasible. To test for a food effect in Part C, the geometric mean ratio (In transformed) of the test treatment (ie, fed condition) relative to the reference treatment (ie, fasted condition) are estimated with the 90% CIs calculated for Cmax and AUC0-inf. […]
Part C may commence once the safety and PK have been adequately evaluated in the last cohort of Part A. Participants receive two doses of Compound 1, one dose after a minimum of 10 hours fasting and one after consumption of a high-fat, high calorie meal in a randomized crossover design, with a 7 day washout in between periods. […]

In the case of `CCOC(F)(F)c1nnc2cnc(-c3cnc(OCC(F)(F)F)c(F)c3)cn12` [Compound 1, 3-(ethoxydifluoromethyl)-6-(5-fluoro-6-(2,2,2-trifluoroethoxy)pyridin-3-yl)-[1,2,4]triazolo[4,3-a]pyrazine], the “Visual Appearance” value ([1]; 0.5% 400 cP MC, 0.2% Poloxamer 188, 0.1 mg/mL, 1 h at RT) was “*”, the “Visual Appearance” value ([1]; 0.5% 400 cP MC, 0.2% Poloxamer 188, 0.1 mg/mL, 4 h at RT) was “*” and the “Visual Appearance” value ([1]; 0.5% 400 cP MC, 0.2% Poloxamer 188, 0.1 mg/mL, 24 h at RT) was “*”. The “Visual Appearance” value ([1]; 0.5% 400 cP MC, 0.2% Poloxamer 188, 10 mg/mL, 1 h at RT) was “*”, the “Visual Appearance” value ([1]; 0.5% 400 cP MC, 0.2% Poloxamer 188, 10 mg/mL, 4 h at RT) was “*” and the “Visual Appearance” value ([1]; 0.5% 400 cP MC, 0.2% Poloxamer 188, 10 mg/mL, 24 h at RT) was “*”. The “Visual Appearance” value ([1]; 0.5% 400 cP MC, 0.2% Poloxamer 188 and 1.0% of paraben preservative solution, 0.1 mg/mL, 1 h at RT) was “*”, the “Visual Appearance” value ([1]; 0.5% 400 cP MC, 0.2% Poloxamer 188 and 1.0% of paraben preservative solution, 0.1 mg/mL, 4 h at RT) was “*” and the “Visual Appearance” value ([1]; 0.5% 400 cP MC, 0.2% Poloxamer 188 and 1.0% of paraben preservative solution, 0.1 mg/mL, 24 h at RT) was “*”. For the same molecule, the “Visual Appearance” value ([1]; 0.5% 400 cP MC, 0.2% Poloxamer 188 and 1.0% of paraben preservative solution, 10 mg/mL, 1 h at RT) was “*”, the “Visual Appearance” value ([1]; 0.5% 400 cP MC, 0.2% Poloxamer 188 and 1.0% of paraben preservative solution, 10 mg/mL, 4 h at RT) was “*” and the “Visual Appearance” value ([1]; 0.5% 400 cP MC, 0.2% Poloxamer 188 and 1.0% of paraben preservative solution, 10 mg/mL, 24 h at RT) was “*”. For the same molecule, the “Visual Appearance” value ([1]; 0.5% 4000 cP MC, 0.2% Poloxamer 188, 0.1 mg/mL, 1 h at RT) was “#”, the “Visual Appearance” value ([1]; 0.5% 4000 cP MC, 0.2% Poloxamer 188, 0.1 mg/mL, 4 h at RT) was “#” and the “Visual Appearance” value ([1]; 0.5% 4000 cP MC, 0.2% Poloxamer 188, 0.1 mg/mL, 24 h at RT) was “#”. For the same molecule, the “Visual Appearance” value ([1]; 0.5% 4000 cP MC, 0.2% Poloxamer 188, 10 mg/mL, 1 h at RT) was “#”, the “Visual Appearance” value ([1]; 0.5% 4000 cP MC, 0.2% Poloxamer 188, 10 mg/mL, 4 h at RT) was “#” and the “Visual Appearance” value ([1]; 0.5% 4000 cP MC, 0.2% Poloxamer 188, 10 mg/mL, 24 h at RT) was “#”. For the same molecule, the “Visual Appearance” value ([1]; 0.5% 4000 cP MC, 0.2% Poloxamer 188 and 1.0% of paraben preservative solution, 0.1 mg/mL, 1 h at RT) was “#”, the “Visual Appearance” value ([1]; 0.5% 4000 cP MC, 0.2% Poloxamer 188 and 1.0% of paraben preservative solution, 0.1 mg/mL, 4 h at RT) was “#” and the “Visual Appearance” value ([1]; 0.5% 4000 cP MC, 0.2% Poloxamer 188 and 1.0% of paraben preservative solution, 0.1 mg/mL, 24 h at RT) was “#”. The “Visual Appearance” value ([1]; 0.5% 4000 cP MC, 0.2% Poloxamer 188 and 1.0% of paraben preservative solution, 10 mg/mL, 1 h at RT) was “#”, the “Visual Appearance” value ([1]; 0.5% 4000 cP MC, 0.2% Poloxamer 188 and 1.0% of paraben preservative solution, 10 mg/mL, 4 h at RT) was “#” and the “Visual Appearance” value ([1]; 0.5% 4000 cP MC, 0.2% Poloxamer 188 and 1.0% of paraben preservative solution, 10 mg/mL, 24 h at RT) was “#”. The solubility kinetic at 15 min ([2]; FaSSIF, thermodynamic from solid, 2 mg/mL, 37° C., 450 rpm, 15 min) was 5.7 µg/mL (≈ 14 µM), the solubility kinetic at 30 min ([2]; FaSSIF, thermodynamic from solid, 2 mg/mL, 37° C., 450 rpm, 30 min) was 8.1 µg/mL (≈ 19.9 µM) and the solubility kinetic at 60 min ([2]; FaSSIF, thermodynamic from solid, 2 mg/mL, 37° C., 450 rpm, 60 min) was 7.1 µg/mL (≈ 17.4 µM). The solubility kinetic at 120 min ([2]; FaSSIF, thermodynamic from solid, 2 mg/mL, 37° C., 450 rpm, 120 min) was 11.6 µg/mL (≈ 28.5 µM), the “Final pH” value ([2]; kinetic solubility test in FaSSIF) was 6.54 and the “time to maximal concentrations” value ([3]; healthy volunteers, oral capsules, fasted, preliminary data) was 2 to 3 h. The “exposure versus dose level” value ([3]; healthy volunteers, preliminary data) was “increase proportionate to dose level”, the half-life ([3]; human, plasma, oral, average across groups, healthy volunteers, preliminary data, read-out: Terminal elimination half-life (converted)) was 114 h and the “time to 90% of steady-state” value ([3]; once daily dosing) was “approximately 2 weeks”.
